Experimental data reported in patent US12134788B2, “Engineered prephenate dehydrogenases and arogenate dehydrogenases and methods of using the same” (Wisconsin Alumni Research Foundation, priority 2017, dated 2024).

Columns and labels:
[1] = target: T1, GmPDH1 (Gm18g02650), soybean (Glycine max) prephenate dehydrogenase, wild type (Glycine max, UniProt I1MYY4); assay: ADH and PDH assay: steady-state kinetics and Tyr inhibition, GmPDH1 wild type; format: biochemical
T1 construct: homodimer
T1 sequence (I1MYY4 1-271): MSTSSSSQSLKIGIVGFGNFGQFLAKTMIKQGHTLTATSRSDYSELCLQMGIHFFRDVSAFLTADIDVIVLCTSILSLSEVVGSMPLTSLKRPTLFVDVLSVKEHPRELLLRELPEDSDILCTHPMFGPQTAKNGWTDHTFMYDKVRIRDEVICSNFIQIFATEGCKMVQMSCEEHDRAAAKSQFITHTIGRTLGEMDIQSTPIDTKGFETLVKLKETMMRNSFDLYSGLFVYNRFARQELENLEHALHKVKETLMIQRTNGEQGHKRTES
Description: (§1) Kinetic parameters of purified recombinant proteins were determined from assays conducted at varying arogenate (19.5 μM-5 mM) and prephenate concentration (23.4 μM-6 mM). Standard assay conditions were 25 mM HEPES pH 7.6, 50 mM KCl and 10% (v/v) ethylene glycol, and 0.5 mM NADP^+ with varied substrate, concentrations. Reactions were initiated by addition of enzyme and incubated at 37° C. monitored every 10-15 seconds at […] using a microplate reader (Tecan Genios). Kinetic parameters were determined by fitting initial velocity data to the Michaelis-Menten equation using the Origin software (OriginLab).
Arogenate was prepared by enzymatic conversion of prephenate (Sigma-Aldrich) as previously reported^56. For Tyr inhibition assays, Tyr was dissolved in a slightly basic solution (0.025 N NaOH) due to solubility issues, thus the concentration of lysis buffer was increased to 500 mM HEPES final concentration to buffer against the changes by addition of Tyr in the reaction. […]

[2] = target: AtADH2 (At1g15710), Arabidopsis thaliana canonical arogenate dehydrogenase, wild type (Arabidopsis thaliana, UniProt Q9LMR3); assay: Tyr inhibition of AtADH2 wild type; format: biochemical; settings: ADH activity, 0-8 mM L-Tyr
AtADH2 (At1g15710), Arabidopsis thaliana canonical arogenate dehydrogenase, wild type, sequence (Q9LMR3 37-358): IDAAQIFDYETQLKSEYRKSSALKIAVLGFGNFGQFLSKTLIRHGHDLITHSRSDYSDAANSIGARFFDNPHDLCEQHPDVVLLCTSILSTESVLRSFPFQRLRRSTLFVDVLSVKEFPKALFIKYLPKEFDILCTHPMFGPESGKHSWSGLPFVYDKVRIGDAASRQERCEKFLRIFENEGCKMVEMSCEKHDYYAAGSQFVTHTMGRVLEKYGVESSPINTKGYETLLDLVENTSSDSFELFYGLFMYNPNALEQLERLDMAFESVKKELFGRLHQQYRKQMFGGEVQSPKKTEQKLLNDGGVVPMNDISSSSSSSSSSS
Description: as §1
(§2) Arogenate was prepared by enzymatic conversion of prephenate (Sigma-Aldrich) as previously reported^56. For Tyr inhibition assays, Tyr was dissolved in a slightly basic solution (0.025 N NaOH) due to solubility issues, thus the concentration of lysis buffer was increased to 500 mM HEPES final concentration to buffer against the changes by addition of Tyr in the reaction. Reactions containing varying amounts of Tyr (10 μM-8 mM) with 0.5 mM NADP^+ and either 1 mM arogenate or 0.8 mM prephenate were monitored as above.

[3] = target: Glycine max GmPDH1 variant N222A (Glycine max, UniProt I1MYY4, N222A); assay: ADH and PDH assay: steady-state kinetics and Tyr inhibition, GmPDH1 N222A; format: biochemical, Glycine max (soybean); settings: 0-8 mM L-Tyr
Glycine max GmPDH1 variant N222A, sequence (I1MYY4 1-271 N222A): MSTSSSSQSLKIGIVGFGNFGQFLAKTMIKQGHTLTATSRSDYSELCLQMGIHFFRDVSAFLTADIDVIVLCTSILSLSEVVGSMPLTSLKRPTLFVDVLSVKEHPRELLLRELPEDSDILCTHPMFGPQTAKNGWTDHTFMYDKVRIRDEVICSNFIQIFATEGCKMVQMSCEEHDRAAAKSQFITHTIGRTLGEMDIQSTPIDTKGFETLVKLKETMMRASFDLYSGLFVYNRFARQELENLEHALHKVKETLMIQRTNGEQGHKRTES
Description: as §1, §2

[4] = target: T2, Medicago truncatula MtPDH variant C220D, SEQ ID NO: 1 (Medicago truncatula, UniProt A0A0A0R205, C220D); assay: ADH and PDH assay: steady-state kinetics and Tyr inhibition, MtPDH C220D; format: biochemical
T2 sequence (A0A0A0R205 1-268 C220D): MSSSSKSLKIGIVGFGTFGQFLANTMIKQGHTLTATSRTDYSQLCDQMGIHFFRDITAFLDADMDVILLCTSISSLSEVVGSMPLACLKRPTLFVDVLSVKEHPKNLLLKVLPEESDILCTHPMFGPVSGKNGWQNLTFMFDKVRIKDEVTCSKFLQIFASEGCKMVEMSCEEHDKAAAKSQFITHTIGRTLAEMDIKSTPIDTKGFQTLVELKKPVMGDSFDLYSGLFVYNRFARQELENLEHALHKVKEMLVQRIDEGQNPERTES
Description: as §1, §2

[5] = target: T3, Glycine max GmncADH variant D218N (Glycine max, UniProt I1M7P5, D218N); assay: ADH and PDH assay: steady-state kinetics and Tyr inhibition, GmncADH D218N; format: biochemical, Glycine max (soybean); settings: versus wild-type; ADH activity, 0-8 mM Tyr
T3 construct: D218N by site-directed mutagenesis
T3 sequence (I1M7P5 1-266 D218N): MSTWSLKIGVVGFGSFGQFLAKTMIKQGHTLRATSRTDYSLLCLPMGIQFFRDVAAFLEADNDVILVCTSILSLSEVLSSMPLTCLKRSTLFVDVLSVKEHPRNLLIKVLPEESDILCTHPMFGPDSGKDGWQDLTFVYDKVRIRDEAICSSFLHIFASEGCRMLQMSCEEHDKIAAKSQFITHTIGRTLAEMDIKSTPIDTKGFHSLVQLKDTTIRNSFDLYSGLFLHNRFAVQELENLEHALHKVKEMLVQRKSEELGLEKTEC
Description: as §1, §2

[6] = target: Arabidopsis thaliana AtADH2 variant D241N, SEQ ID NO: 12 (Arabidopsis thaliana, UniProt Q9LMR3, D275N); assay: Tyr inhibition of AtADH2 D241N; format: biochemical; settings: versus wild-type; ADH activity, 0-8 mM Tyr
Arabidopsis thaliana AtADH2 variant D241N, SEQ ID NO: 12, sequence (Q9LMR3 37-358 D275N): as the sequence (Q9LMR3 37-358) above, with D239N counted along it
Description: as §1, §2

[7] = test system: SynADH, Synechocystis sp. PCC 6803 arogenate dehydrogenase; settings: cited from earlier work
[8] = test system: AaPDH, A. aeolicus prephenate dehydrogenase; settings: cited from earlier work

## N[C@@H](Cc1ccc(O)cc1)C(=O)O [Tyr, L-Tyrosine]
[1]
  IC50: 31.3 ± 9.3 mM
[1]; up to 8 mM Tyr in assays
  feedback inhibition by Tyr: insensitive to feedback inhibition by Tyr
[2]
  IC50: 0.038 mM
[3]
  inhibition by Tyr: not inhibited by Tyr
[4]
  IC50: 8.2 ± 0.9 mM
[5]
  sensitivity to Tyr inhibition: significantly less sensitive to Tyr inhibition
[6]
  sensitivity to Tyr inhibition: significantly less sensitive to Tyr inhibition
[7]
  Tyr sensitivity: Tyr insensitive
[8]
  Tyr sensitivity: sensitive to Tyr
